# Laboratory results taken from PubChem BioAssay AID1259407 (Chemical Carcinogenesis Research Information System (CCRIS), 2018).
# Calls of active or inactive are those of the source. The rule behind the calls is not given here.
# Tested on: CCRIS mutagenicity, Ames/micronucleus/aberration tests
# Assay: CCRIS mutagenicity studies
# [1] = Test System: AMES SALMONELLA TYPHIMURIUM, Strain/Indicator: TA97A, Metabolic Activation: RAT, LIVER, S-9, AROCLOR 1254, Method: STANDARD PLATE
# [2] = Test System: AMES SALMONELLA TYPHIMURIUM, Strain/Indicator: TA98, Metabolic Activation: NONE, Method: PREINCUBATION
# [3] = Test System: AMES SALMONELLA TYPHIMURIUM, Strain/Indicator: TA98, Metabolic Activation: NONE, Method: STANDARD PLATE
# [4] = Test System: AMES SALMONELLA TYPHIMURIUM, Strain/Indicator: TA98, Metabolic Activation: RAT, LIVER, S-9, AROCLOR 1254, Method: STANDARD PLATE
# [5] = Test System: AMES SALMONELLA TYPHIMURIUM, Strain/Indicator: TA100, Metabolic Activation: NONE, Method: PREINCUBATION
# [6] = Test System: AMES SALMONELLA TYPHIMURIUM, Strain/Indicator: TA100, Metabolic Activation: NONE, Method: STANDARD PLATE
# [7] = Test System: AMES SALMONELLA TYPHIMURIUM, Strain/Indicator: TA100, Metabolic Activation: RAT, LIVER, S-9, AROCLOR 1254, Method: STANDARD PLATE
# [8] = Test System: AMES SALMONELLA TYPHIMURIUM, Strain/Indicator: TA102, Metabolic Activation: NONE, Method: STANDARD PLATE
# [9] = Test System: AMES SALMONELLA TYPHIMURIUM, Strain/Indicator: TA102, Metabolic Activation: RAT, LIVER, S-9, AROCLOR 1254, Method: STANDARD PLATE
# [10] = Test System: AMES SALMONELLA TYPHIMURIUM, Strain/Indicator: TA1535, Metabolic Activation: NONE, Method: PREINCUBATION
# [11] = Test System: AMES SALMONELLA TYPHIMURIUM, Strain/Indicator: TA1537, Metabolic Activation: NONE, Method: PREINCUBATION
smiles,measurement,setting,value
CCCCOCCO,mutagenic call,"Test System: AMES SALMONELLA TYPHIMURIUM, Strain/Indicator: TA97, Metabolic Activation: HAMSTER, LIVER, S-9, AROCLOR 1254 (10 OR 30%), Method: PREINCUBATION",inactive; negative
same,mutagenic call,"Test System: AMES SALMONELLA TYPHIMURIUM, Strain/Indicator: TA97, Metabolic Activation: NONE, Method: PREINCUBATION",inactive; negative
same,mutagenic call,"Test System: AMES SALMONELLA TYPHIMURIUM, Strain/Indicator: TA97, Metabolic Activation: RAT, LIVER, S-9, AROCLOR 1254 (5, 10 OR 30%), Method: PREINCUBATION",inactive; negative
same,mutagenic call,"Test System: AMES SALMONELLA TYPHIMURIUM, Strain/Indicator: TA97A, Metabolic Activation: RAT, LIVER, S-9, AROCLOR 1254 (2.5 OR 10%), Method: STANDARD PLATE",inactive; negative
same,mutagenic call,[1],active; positive
same,mutagenic call,"Test System: AMES SALMONELLA TYPHIMURIUM, Strain/Indicator: TA98, Metabolic Activation: HAMSTER, LIVER, S-9, AROCLOR 1254 (10 OR 30%), Method: PREINCUBATION",inactive; negative
same,mutagenic call,[2],inactive; negative
same,mutagenic call,[3],inactive; negative
same,mutagenic call,"Test System: AMES SALMONELLA TYPHIMURIUM, Strain/Indicator: TA98, Metabolic Activation: RAT, LIVER, S-9, AROCLOR 1254 (10 OR 30%), Method: PREINCUBATION",inactive; negative
same,mutagenic call,[4],inactive; negative
same,mutagenic call,"Test System: AMES SALMONELLA TYPHIMURIUM, Strain/Indicator: TA100, Metabolic Activation: HAMSTER, LIVER, S-9, AROCLOR 1254 (10 OR 30%), Method: PREINCUBATION",inactive; negative
same,mutagenic call,[5],inactive; negative
same,mutagenic call,[6],inactive; negative
same,mutagenic call,"Test System: AMES SALMONELLA TYPHIMURIUM, Strain/Indicator: TA100, Metabolic Activation: RAT, LIVER, S-9, AROCLOR 1254 (2.5 OR 10%), Method: STANDARD PLATE",inactive; negative
same,mutagenic call,"Test System: AMES SALMONELLA TYPHIMURIUM, Strain/Indicator: TA100, Metabolic Activation: RAT, LIVER, S-9, AROCLOR 1254 (10 OR 30%), Method: PREINCUBATION",inactive; negative
same,mutagenic call,[7],inactive; negative
same,mutagenic call,[8],inactive; negative
same,mutagenic call,[9],inactive; negative
same,mutagenic call,"Test System: AMES SALMONELLA TYPHIMURIUM, Strain/Indicator: TA1535, Metabolic Activation: HAMSTER, LIVER, S-9, AROCLOR 1254 (10 OR 30%), Method: PREINCUBATION",inactive; negative
same,mutagenic call,[10],inactive; negative
same,mutagenic call,"Test System: AMES SALMONELLA TYPHIMURIUM, Strain/Indicator: TA1535, Metabolic Activation: RAT, LIVER, S-9, AROCLOR 1254 (10 OR 30%), Method: PREINCUBATION",inactive; negative
same,mutagenic call,"Test System: AMES SALMONELLA TYPHIMURIUM, Strain/Indicator: TA1537, Metabolic Activation: HAMSTER, LIVER, S-9, AROCLOR 1254 (30%), Method: PREINCUBATION",inactive; negative
same,mutagenic call,[11],inactive; negative
same,mutagenic call,"Test System: AMES SALMONELLA TYPHIMURIUM, Strain/Indicator: TA1537, Metabolic Activation: RAT, LIVER, S-9, AROCLOR 1254 (30%), Method: PREINCUBATION",inactive; negative
same,mutagenic call,"Test System: CHINESE HAMSTER OVARY, Strain/Indicator: CHO-AS52/6-THIOGUANINE, Metabolic Activation: NONE",inactive; negative
same,mutagenic call,"Test System: CHINESE HAMSTER V-79, Strain/Indicator: V-79 (HPRT)/6-THIOGUANINE, Metabolic Activation: NONE",active; positive
same,mutagenic call,"Test System: E. COLI, Strain/Indicator: WP2 UVRA, Metabolic Activation: NONE, Method: STANDARD PLATE",inactive; negative
same,mutagenic call,"Test System: E. COLI, Strain/Indicator: WP2 UVRA, Metabolic Activation: RAT, LIVER, S-9, AROCLOR 1254 (2.5 OR 10%), Method: STANDARD PLATE",inactive; negative
CCC(=O)N(O)c1ccc2ccccc2c1,mutagenic call,[2],inactive; negative
same,mutagenic call,"Test System: AMES SALMONELLA TYPHIMURIUM, Strain/Indicator: TA98, Metabolic Activation: RAT, LIVER, CYTOSOL, Method: PREINCUBATION",inactive; negative
same,mutagenic call,"Test System: AMES SALMONELLA TYPHIMURIUM, Strain/Indicator: TA98, Metabolic Activation: RAT, LIVER, MICROSOMES, Method: PREINCUBATION",active; positive
O=[N+]([O-])c1cccc2cccc([N+](=O)[O-])c12,mutagenic call,"End Point: IN VITRO CHROMOSOMAL ABERRATIONS, Test System: CHL CELLS, Metabolic Activation: NONE",inactive; negative
same,mutagenic call,"End Point: IN VITRO CHROMOSOMAL ABERRATIONS, Test System: CHL CELLS, Metabolic Activation: RAT, LIVER, S-9, SODIUM PHENOBARBITAL AND 5,6-BENZOFLAVONE",active; positive (structural changes)
same,mutagenic call,"Test System: AMES SALMONELLA TYPHIMURIUM, Strain/Indicator: TA98, Metabolic Activation: HAMSTER, LIVER, S-9, AROCLOR 1254, FLAVIN MONONUCLEOTIDE, Method: PREINCUBATION",active; positive
same,mutagenic call,"Test System: AMES SALMONELLA TYPHIMURIUM, Strain/Indicator: TA98, Metabolic Activation: HAMSTER, LIVER, S-9, AROCLOR 1254, Method: PREINCUBATION",active; positive
same,mutagenic call,[2],active; positive
same,mutagenic call,"Test System: AMES SALMONELLA TYPHIMURIUM, Strain/Indicator: TA98, Metabolic Activation: RAT LIVER S-9, PHENOBARBITAL AND BETA-NAPHTHOFLAVONE, Method: PREINCUBATION",active; positive
same,mutagenic call,"Test System: AMES SALMONELLA TYPHIMURIUM, Strain/Indicator: TA98, Metabolic Activation: RAT, LIVER, S-9, AROCLOR 1254, FLAVIN MONONUCLEOTIDE, Method: PREINCUBATION",active; positive
same,mutagenic call,[4],active; positive
same,mutagenic call,[5],active; positive
same,mutagenic call,"Test System: AMES SALMONELLA TYPHIMURIUM, Strain/Indicator: TA100, Metabolic Activation: RAT LIVER S-9, PHENOBARBITAL AND BETA-NAPHTHOFLAVONE, Method: PREINCUBATION",active; positive
same,mutagenic call,[10],inactive; negative
same,mutagenic call,"Test System: AMES SALMONELLA TYPHIMURIUM, Strain/Indicator: TA1535, Metabolic Activation: RAT LIVER S-9, PHENOBARBITAL AND BETA-NAPHTHOFLAVONE, Method: PREINCUBATION",inactive; negative
same,mutagenic call,[11],active; positive
same,mutagenic call,"Test System: AMES SALMONELLA TYPHIMURIUM, Strain/Indicator: TA1537, Metabolic Activation: RAT LIVER S-9, PHENOBARBITAL AND BETA-NAPHTHOFLAVONE, Method: PREINCUBATION",active; positive
same,mutagenic call,"Test System: AMES SALMONELLA TYPHIMURIUM, Strain/Indicator: TA1538, Metabolic Activation: NONE, Method: PREINCUBATION",active; positive
same,mutagenic call,"Test System: AMES SALMONELLA TYPHIMURIUM, Strain/Indicator: TA1538, Metabolic Activation: RAT LIVER S-9, PHENOBARBITAL AND BETA-NAPHTHOFLAVONE, Method: PREINCUBATION",active; positive
same,mutagenic call,"Test System: E.COLI, Strain/Indicator: WP2UVRA, Metabolic Activation: NONE, Method: PREINCUBATION",inactive; negative
same,mutagenic call,"Test System: E.COLI, Strain/Indicator: WP2UVRA, Metabolic Activation: RAT LIVER S-9, PHENOBARBITAL AND BETA-NAPHTHOFLAVONE, Method: PREINCUBATION",active; positive
O=S(=O)(c1ccc(Cl)cc1)c1cc(Cl)c(Cl)cc1Cl,mutagenic call,"End Point: In vivo chromosomal aberrations, Test System: Bone marrow cells, Species: Rat, Strain/Sex: Wistar/Female, Route: Oral",inactive; negative
same,mutagenic call,"Test System: AMES SALMONELLA TYPHIMURIUM, Strain/Indicator: TA97A, Metabolic Activation: NONE, Method: STANDARD PLATE",inactive; negative
same,mutagenic call,[1],inactive; negative
same,mutagenic call,[3],inactive; negative
same,mutagenic call,[4],inactive; negative
same,mutagenic call,[6],inactive; negative
same,mutagenic call,[7],inactive; negative
same,mutagenic call,[8],inactive; negative
same,mutagenic call,[9],inactive; negative
